Assay results taken from ChEMBL document CHEMBL1140950, “Discovery of (2S,4R)-1-(2-aminoacetyl)-4-benzamidopyrrolidine-2-carboxylic acid hydrochloride (GAP-134)13, an orally active small molecule gap-junction modifier for the treatment of atrial fibrillation” (J Med Chem, 2009).
Activity calls are given as the source filed them. The calls are words filed in the database; no cut-off is given here. Where a SMILES comes first, the peptide text is derived from it. [ ]: non-standard residue; d: D form. dHyp = O=C(O)[C@H]1C[C@H](O)CN1

Columns and labels:
[1] = tested on: Mus musculus; assay: Antiarrhythmic effect in calcium chloride-induced CD1 mouse arrhythmia model assessed as gap-junction intracellular communication re-establishment-mediated prolongation of time to onset of cardiac conduction block at 1 pmol/kg, iv relative to control; format: functional, Heart
[2] = tested on: Mus musculus; assay: Antiarrhythmic effect in calcium chloride-induced CD1 mouse arrhythmia model assessed as gap-junction intracellular communication re-establishment-mediated prolongation of time to onset of cardiac conduction block at 10 pmol/kg, iv relative to control; format: functional, Heart
[3] = tested on: Mus musculus; assay: Antiarrhythmic effect in calcium chloride-induced CD1 mouse arrhythmia model assessed as gap-junction intracellular communication re-establishment-mediated prolongation of time to onset of cardiac conduction block at 100 pmol/kg, iv relative to control; format: functional, Heart
[4] = tested on: Mus musculus; assay: Antiarrhythmic effect in calcium chloride-induced CD1 mouse arrhythmia model assessed as gap-junction intracellular communication re-establishment-mediated prolongation of time to onset of cardiac conduction block at 1 nmol/kg, iv relative to control; format: functional, Heart
[5] = Volume of distribution at steady state in rat at 0.5 mg/kg, iv; format: ADME, organism-based; parameters: dose 0.5 mg/kg, route intravenous; details: in vivo, read-out: Vdss
[6] = tested on: Cardiac atrium; assay: Prevention of metabolic stress-induced conduction velocity slowing in Sprague-Dawley rat atrium at 10 uM by microelectrode based assay; format: functional, tissue-based
[7] = Clearance in rat at 0.5 mg/kg, iv; format: ADME, organism-based; parameters: dose 0.5 mg/kg, route intravenous; details: in vivo
[8] = Half life in rat at 0.5 mg/kg, iv; format: ADME, organism-based; parameters: dose 0.5 mg/kg, route intravenous; details: in vivo
[9] = (§1) Oral bioavailability in rat at 5 mg/kg; format: ADME, organism-based; details: in vivo
[10] = Half life in rat at 5 mg/kg, po; format: ADME, organism-based; parameters: dose 5 mg/kg, route oral; details: in vivo
[11] = Cmax in rat at 5 mg/kg, po; format: ADME, organism-based; parameters: dose 5 mg/kg, route oral; details: in vivo
[12] = Tmax in rat at 5 mg/kg, po; format: ADME, organism-based; parameters: dose 5 mg/kg, route oral; details: in vivo
[13] = (§2) AUC in rat at 5 mg/kg, po; format: ADME, organism-based, Plasma; parameters: dose 5 mg/kg, route oral; details: plasma
[14] = tested on: Rattus norvegicus; assay: as §1; format: ADME, organism-based; details: in vivo
[15] = tested on: Rattus norvegicus; assay: as §2; format: ADME, organism-based, Plasma; parameters: dose 5 mg/kg, route oral; details: in vivo
[16] = tested on: C6; assay: Reduction of simulated ischemia-induced calcein uptake in rat C6 cells; format: functional, cell-based
[17] = Oral bioavailability in dog; format: ADME, organism-based, Canis lupus familiaris; details: in vivo
[18] = tested on: C6; assay: Reduction of simulated ischemia-induced cell swelling in rat C6 cells; format: functional, cell-based
[19] = tested on: Mus musculus; assay: Antiarrhythmic effect in calcium chloride-induced po dosed CD1 mouse arrhythmia model assessed as gap-junction intracellular communication re-establishment-mediated prolongation of time to onset of cardiac conduction block relative to control; format: functional, Heart
[20] = target: Voltage-gated inwardly rectifying potassium channel KCNH2 (Homo sapiens, UniProt Q12809); assay: Inhibition of human ERG
[21] = target: Cytochrome P450 3A4 (Homo sapiens, UniProt P08684); assay: Inhibition of CYP3A4 at 3 uM; format: ADME
[22] = target: Cytochrome P450 2D6 (Homo sapiens, UniProt P10635); assay: Inhibition of CYP2D6 at 3 uM; format: ADME
[23] = target: Cytochrome P450 2C9 (Homo sapiens, UniProt P11712); assay: Inhibition of CYP2C9 at 3 uM; format: ADME
[24] = tested on: Mus musculus; assay: Antiarrhythmic effect in calcium chloride-induced CD1 mouse arrhythmia model assessed as gap-junction intracellular communication re-establishment-mediated prolongation of time to onset of cardiac conduction block at 10 mg/kg, po relative to control; format: functional, organism-based; parameters: dose 10 mg/kg; details: Heart

Cytochrome P450 3A4, sequence (P08684 whole entry): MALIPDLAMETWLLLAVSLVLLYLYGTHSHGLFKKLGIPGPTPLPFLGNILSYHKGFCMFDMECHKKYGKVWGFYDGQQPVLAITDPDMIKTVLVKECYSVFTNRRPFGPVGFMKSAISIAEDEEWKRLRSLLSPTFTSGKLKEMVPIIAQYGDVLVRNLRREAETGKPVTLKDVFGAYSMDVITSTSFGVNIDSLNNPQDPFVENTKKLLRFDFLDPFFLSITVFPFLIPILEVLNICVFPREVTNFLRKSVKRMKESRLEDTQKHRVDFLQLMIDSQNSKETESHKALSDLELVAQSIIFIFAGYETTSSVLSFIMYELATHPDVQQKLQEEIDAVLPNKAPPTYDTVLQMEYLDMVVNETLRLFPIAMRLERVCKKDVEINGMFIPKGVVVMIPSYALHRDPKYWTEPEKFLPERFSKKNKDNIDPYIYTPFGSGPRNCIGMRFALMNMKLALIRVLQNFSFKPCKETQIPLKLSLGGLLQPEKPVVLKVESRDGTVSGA
Cytochrome P450 2C9, sequence (P11712 whole entry): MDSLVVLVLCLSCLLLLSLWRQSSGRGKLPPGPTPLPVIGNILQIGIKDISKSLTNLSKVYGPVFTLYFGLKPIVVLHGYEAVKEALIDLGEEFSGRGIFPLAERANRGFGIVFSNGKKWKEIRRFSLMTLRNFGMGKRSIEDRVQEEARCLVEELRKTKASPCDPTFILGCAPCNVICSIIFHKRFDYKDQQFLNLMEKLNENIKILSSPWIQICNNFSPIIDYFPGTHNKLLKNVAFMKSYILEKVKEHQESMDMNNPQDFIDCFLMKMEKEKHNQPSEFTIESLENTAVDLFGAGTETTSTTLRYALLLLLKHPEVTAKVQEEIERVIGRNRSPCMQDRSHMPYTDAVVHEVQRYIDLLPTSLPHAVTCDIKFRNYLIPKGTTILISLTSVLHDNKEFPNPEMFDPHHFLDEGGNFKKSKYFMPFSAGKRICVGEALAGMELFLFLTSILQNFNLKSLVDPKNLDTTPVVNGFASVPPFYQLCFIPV
Voltage-gated inwardly rectifying potassium channel KCNH2, sequence (Q12809 whole entry): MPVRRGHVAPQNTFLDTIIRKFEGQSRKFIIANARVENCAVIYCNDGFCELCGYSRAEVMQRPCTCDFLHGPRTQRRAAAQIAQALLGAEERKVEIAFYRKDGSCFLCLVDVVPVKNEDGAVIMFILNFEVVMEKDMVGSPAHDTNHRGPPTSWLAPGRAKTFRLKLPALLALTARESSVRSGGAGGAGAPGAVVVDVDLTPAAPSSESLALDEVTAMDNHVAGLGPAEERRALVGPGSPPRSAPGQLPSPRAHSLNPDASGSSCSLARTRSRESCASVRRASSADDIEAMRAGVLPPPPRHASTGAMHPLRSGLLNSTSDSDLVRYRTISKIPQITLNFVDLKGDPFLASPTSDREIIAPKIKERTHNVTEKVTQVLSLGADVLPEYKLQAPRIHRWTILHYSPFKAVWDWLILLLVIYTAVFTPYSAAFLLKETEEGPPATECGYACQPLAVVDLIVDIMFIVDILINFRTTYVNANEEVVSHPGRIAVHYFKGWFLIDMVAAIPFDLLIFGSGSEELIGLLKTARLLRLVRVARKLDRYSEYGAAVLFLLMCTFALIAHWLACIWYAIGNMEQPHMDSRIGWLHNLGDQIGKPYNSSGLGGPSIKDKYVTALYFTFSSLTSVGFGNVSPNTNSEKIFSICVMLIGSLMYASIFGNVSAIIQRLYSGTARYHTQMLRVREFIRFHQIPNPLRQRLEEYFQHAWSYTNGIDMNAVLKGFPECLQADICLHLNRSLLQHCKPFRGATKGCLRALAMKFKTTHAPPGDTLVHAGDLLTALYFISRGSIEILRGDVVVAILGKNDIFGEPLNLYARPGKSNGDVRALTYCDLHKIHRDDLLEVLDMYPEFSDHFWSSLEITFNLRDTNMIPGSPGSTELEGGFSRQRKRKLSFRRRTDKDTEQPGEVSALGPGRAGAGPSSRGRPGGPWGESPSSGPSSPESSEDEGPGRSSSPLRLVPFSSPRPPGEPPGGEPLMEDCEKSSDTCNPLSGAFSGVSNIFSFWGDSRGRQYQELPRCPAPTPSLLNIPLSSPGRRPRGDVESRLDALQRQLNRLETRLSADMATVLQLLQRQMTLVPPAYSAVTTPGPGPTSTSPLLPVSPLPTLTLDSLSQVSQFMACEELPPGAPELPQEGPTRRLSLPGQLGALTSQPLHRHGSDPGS
Cytochrome P450 2D6, sequence (P10635 whole entry): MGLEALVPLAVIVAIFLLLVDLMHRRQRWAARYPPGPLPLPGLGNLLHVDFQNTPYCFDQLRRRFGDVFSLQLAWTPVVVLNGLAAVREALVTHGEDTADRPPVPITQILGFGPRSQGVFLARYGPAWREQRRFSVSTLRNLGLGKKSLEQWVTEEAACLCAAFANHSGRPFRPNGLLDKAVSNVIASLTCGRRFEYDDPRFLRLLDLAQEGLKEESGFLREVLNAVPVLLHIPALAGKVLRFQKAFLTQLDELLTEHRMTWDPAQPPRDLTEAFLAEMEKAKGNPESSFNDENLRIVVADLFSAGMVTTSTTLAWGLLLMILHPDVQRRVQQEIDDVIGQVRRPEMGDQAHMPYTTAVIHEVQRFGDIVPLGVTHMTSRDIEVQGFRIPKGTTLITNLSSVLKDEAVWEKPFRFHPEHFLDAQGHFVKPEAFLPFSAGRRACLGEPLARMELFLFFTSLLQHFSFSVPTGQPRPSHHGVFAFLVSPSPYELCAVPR

Vd [5] [L/kg]	half-life [8] [min]	half-life [10] [min]	Cmax [11] [ng/mL]	Tmax [12] [min]	SMILES	Activity [1] [%]	Activity [2] [%]	Activity [3] [%]	Activity [4] [%]	Activity [6]	also measured
–	–	–	–	–	CC(=O)N[C@@H](C)C(=O)NCC(=O)N[C@@H](CC(N)=O)C(=O)N[C@@H](Cc1ccc(O)cc1)C(N)=O (Ac-AGNY-NH2)	228	157	205	136	–	–
–	–	–	–	–	NCC(=O)NCCCC[C@@H](NC(=O)c1ccc([N+](=O)[O-])cc1)C(=O)O	192	177	151	158	–	–
0.4	18	90	28	45	COc1ccc(C(=O)NCC(=O)NCCCC[C@@H](N)CC(=O)O)cc1	220	133	128	164	Active	clearance [7]: 31 mL/min/kg; bioavailability [9]: 2%; AUC [13]: 71 ng·h/mL
0.9	18	30	31.5	24	NC(=O)C[C@H](NC(=O)CO)C(=O)N[C@@H](Cc1ccc(O)cc1)C(N)=O	188	232	203	187	Active	F [14]: 0.7%; AUC [15]: 36 ng·h/mL
0.61	48	114	105	30	Cl.NCC(=O)N1C[C@H](NC(=O)c2ccccc2)C[C@H]1C(=O)O	162	207	148	173	Active	Activity [16]: Dose-dependent effect; clearance [7]: 22 mL/min/kg; bioavailability [9]: 9%; AUC [13]: 360 ng·h/mL; bioavailability [17]: 21%; Activity [18]: Active; Activity [19]: 200%; Activity [20]: Not Active; Activity [21]: Not Active; Activity [22]: Not Active; Activity [23]: Not Active
–	–	–	–	–	N[C@H](CCCCNC(=O)CNC(=O)c1ccc([N+](=O)[O-])cc1)CC(=O)O	124	206	197	201	–	–
–	–	–	–	–	CC(=O)N[C@H](Cc1ccc(O)cc1)C(=O)N1CCC[C@@H]1C(=O)N1C[C@@H](O)C[C@@H]1C(=O)NCC(=O)N[C@H](C)C(=O)NCC(N)=O [ROTIGAPTIDE] (Ac-[dY][dP][dHyp]G[dA]G-NH2)	199	207	152	156	Active	Activity [16]: Dose-dependent effect; Activity [24]: Active
